Data taken from ChEMBL document CHEMBL3885861, “Open TG-GATES”.

Species on record: Rattus norvegicus
Assay: Open TG-GATES - Regimen: Daily Repeat
Type: toxicity, organism-based, Sprague-Dawley
Set-up: regimen Daily Repeat, gender Male, age 6 weeks
Details: in vivo, po, route gavage; for APTT / Bas / Eos / Fbg / Hb / Ht / Lym / MCH / MCHC / Mono / Neu / Plat / RBC / Ret: tissue Blood; for KIDNEY_L / KIDNEY_R / KIDNEY_TOTAL: tissue Kidney; for LIVER: tissue Liver; for ALP / ALT / AST / BUN / CRE / Ca / Cl / DBIL / GLC / IP / K / LDH / Na / PL / RALB / TBIL / TC / TG / TP / gamma-GTP: tissue Plasma
[1] = 0 mg/kg, 72 h, dose level Control, time 3 day
[2] = 0 mg/kg, […], dose level Control, time 7 day
[3] = 0 mg/kg, […], dose level Control, time 14 day
[4] = 0 mg/kg, […], dose level Control, time 28 day
[5] = 3 mg/kg, 72 h, dose level Low, time 3 day
[6] = 3 mg/kg, […], dose level Low, time 7 day
[7] = 3 mg/kg, […], dose level Low, time 14 day
[8] = 3 mg/kg, […], dose level Low, time 28 day

## O=C(CCCN1CCC(O)(c2ccc(Cl)cc2)CC1)c1ccc(F)cc1 [HALOPERIDOL]
[1]
  TERMINAL_BW: 226.4 g
  APTT: 16.5 s
  Bas: 0%
  Eos: 0.2%
  Fbg: 223.2 mg/dL
  Hb: 13.8 g/dL
  Ht: 41.1%
  Lym: 84.4%
  MCH: 21.8 pg
  MCHC: 33.6%
  Mono: 4%
  Neu: 11.4%
  Plat: 119.4 x10_4/uL
  RBC: 632.8 x10_4/ul
  Ret: 7.7%
  KIDNEY_L: 1 g
  KIDNEY_R: 1 g
  KIDNEY_TOTAL: 2 g
  LIVER: 11.1 g
  ALP: 915.2 IU/L
  ALT: 38 IU/L
  AST: 59.6 IU/L
  BUN: 19.2 mg/dL
  CRE: 0.6 mg/dL
  Ca: 11.2 mg/dL
  Cl: 105.8 meq/L
  DBIL: 0 mg/dL
  GLC: 191.2 mg/dL
  IP: 8.4 mg/dL
  K: 4.9 meq/L
  LDH: 91.8 IU/L
  Na: 139.2 meq/L
  PL: 166.2 mg/dL
  RALB: 4 g/dL
  TBIL: 0.2 mg/dL
  TC: 88 mg/dL
  TG: 96.6 mg/dL
  TP: 6 g/dL
  gamma-GTP: 1.6 IU/L
[2]
  TERMINAL_BW: 261.8 g
  APTT: 16.9 s
  Bas: 0%
  Eos: 0.8%
  Fbg: 216.4 mg/dL
  Hb: 13.9 g/dL
  Ht: 41.8%
  Lym: 80.4%
  MCH: 21.2 pg
  MCHC: 33.3%
  Mono: 4.8%
  Neu: 14%
  Plat: 104.8 x10_4/uL
  RBC: 658 x10_4/ul
  Ret: 5.8%
  KIDNEY_L: 1.1 g
  KIDNEY_R: 1.1 g
  KIDNEY_TOTAL: 2.1 g
  LIVER: 12.9 g
  ALP: 874.8 IU/L
  ALT: 33.4 IU/L
  AST: 59.4 IU/L
  BUN: 20.2 mg/dL
  CRE: 0.5 mg/dL
  Ca: 11.2 mg/dL
  Cl: 104.8 meq/L
  DBIL: 0.006 mg/dL
  GLC: 196 mg/dL
  IP: 7.4 mg/dL
  K: 4.6 meq/L
  LDH: 93 IU/L
  Na: 138.8 meq/L
  PL: 169.8 mg/dL
  RALB: 3.9 g/dL
  TBIL: 0.3 mg/dL
  TC: 83 mg/dL
  TG: 134.4 mg/dL
  TP: 5.9 g/dL
  gamma-GTP: 1.8 IU/L
[3]
  TERMINAL_BW: 307.2 g
  APTT: 16.2 s
  Bas: 0%
  Eos: 0.2%
  Fbg: 224.2 mg/dL
  Hb: 14.6 g/dL
  Ht: 43.8%
  Lym: 78.4%
  MCH: 20.4 pg
  MCHC: 33.3%
  Mono: 5.2%
  Neu: 16.2%
  Plat: 107.4 x10_4/uL
  RBC: 716 x10_4/ul
  Ret: 3.7%
  KIDNEY_L: 1.2 g
  KIDNEY_R: 1.2 g
  KIDNEY_TOTAL: 2.4 g
  LIVER: 14 g
  ALP: 784.8 IU/L
  ALT: 32.6 IU/L
  AST: 62.4 IU/L
  BUN: 21.2 mg/dL
  CRE: 0.5 mg/dL
  Ca: 10.7 mg/dL
  Cl: 106.8 meq/L
  DBIL: 0.01 mg/dL
  GLC: 195.4 mg/dL
  IP: 7.4 mg/dL
  K: 4.8 meq/L
  LDH: 93.2 IU/L
  Na: 138.2 meq/L
  PL: 161.2 mg/dL
  RALB: 3.9 g/dL
  TBIL: 0.3 mg/dL
  TC: 76.2 mg/dL
  TG: 149 mg/dL
  TP: 6.2 g/dL
  gamma-GTP: 1.4 IU/L
[4]
  TERMINAL_BW: 396.3 g
  APTT: 16.6 s
  Bas: 0%
  Eos: 0.8%
  Fbg: 235.8 mg/dL
  Hb: 15.1 g/dL
  Ht: 45.3%
  Lym: 80.8%
  MCH: 19.2 pg
  MCHC: 33.4%
  Mono: 5.8%
  Neu: 12.6%
  Plat: 105.5 x10_4/uL
  RBC: 787.6 x10_4/ul
  Ret: 3%
  KIDNEY_L: 1.4 g
  KIDNEY_R: 1.4 g
  KIDNEY_TOTAL: 2.8 g
  LIVER: 16.7 g
  ALP: 558 IU/L
  ALT: 30.4 IU/L
  AST: 58.8 IU/L
  BUN: 22.2 mg/dL
  CRE: 0.6 mg/dL
  Ca: 11.1 mg/dL
  Cl: 105 meq/L
  DBIL: 0.052 mg/dL
  GLC: 177.4 mg/dL
  IP: 7.8 mg/dL
  K: 4.6 meq/L
  LDH: 79.4 IU/L
  Na: 140 meq/L
  PL: 160.8 mg/dL
  RALB: 4.1 g/dL
  TBIL: 0.2 mg/dL
  TC: 75.2 mg/dL
  TG: 176.2 mg/dL
  TP: 6.6 g/dL
  gamma-GTP: 1.6 IU/L
[5]
  TERMINAL_BW: 219.6 g
  APTT: 16 s
  Bas: 0%
  Eos: 1.4%
  Fbg: 210 mg/dL
  Hb: 14.1 g/dL
  Ht: 42.1%
  Lym: 75.8%
  MCH: 21.4 pg
  MCHC: 33.5%
  Mono: 5%
  Neu: 17.8%
  Plat: 113.5 x10_4/uL
  RBC: 658.8 x10_4/ul
  Ret: 6.6%
  KIDNEY_L: 0.9 g
  KIDNEY_R: 0.9 g
  KIDNEY_TOTAL: 1.9 g
  LIVER: 10.7 g
  ALP: 995 IU/L
  ALT: 39.6 IU/L
  AST: 62 IU/L
  BUN: 21 mg/dL
  CRE: 0.5 mg/dL
  Ca: 11.3 mg/dL
  Cl: 106.2 meq/L
  DBIL: 0 mg/dL
  GLC: 183.6 mg/dL
  IP: 7.9 mg/dL
  K: 4.8 meq/L
  LDH: 76.4 IU/L
  Na: 138.6 meq/L
  PL: 195.4 mg/dL
  RALB: 4 g/dL
  TBIL: 0.2 mg/dL
  TC: 93.6 mg/dL
  TG: 112 mg/dL
  TP: 6 g/dL
  gamma-GTP: 1.4 IU/L
[6]
  TERMINAL_BW: 256.9 g
  APTT: 16.5 s
  Bas: 0%
  Eos: 0.2%
  Fbg: 217 mg/dL
  Hb: 14.3 g/dL
  Ht: 42.9%
  Lym: 79.2%
  MCH: 21.1 pg
  MCHC: 33.4%
  Mono: 4.4%
  Neu: 16.2%
  Plat: 100.7 x10_4/uL
  RBC: 678.4 x10_4/ul
  Ret: 5.1%
  KIDNEY_L: 1 g
  KIDNEY_R: 1.1 g
  KIDNEY_TOTAL: 2.1 g
  LIVER: 12.2 g
  ALP: 845.6 IU/L
  ALT: 33.2 IU/L
  AST: 61.4 IU/L
  BUN: 19.2 mg/dL
  CRE: 0.6 mg/dL
  Ca: 11.6 mg/dL
  Cl: 106.8 meq/L
  DBIL: 0 mg/dL
  GLC: 187.8 mg/dL
  IP: 7.7 mg/dL
  K: 4.6 meq/L
  LDH: 93.4 IU/L
  Na: 138.4 meq/L
  PL: 162 mg/dL
  RALB: 4 g/dL
  TBIL: 0.2 mg/dL
  TC: 74.6 mg/dL
  TG: 132 mg/dL
  TP: 6.1 g/dL
  gamma-GTP: 1.4 IU/L
[7]
  TERMINAL_BW: 298.2 g
  APTT: 17.2 s
  Bas: 0%
  Eos: 0.8%
  Fbg: 226.4 mg/dL
  Hb: 15.1 g/dL
  Ht: 45.1%
  Lym: 76.6%
  MCH: 20.9 pg
  MCHC: 33.6%
  Mono: 5.2%
  Neu: 17.4%
  Plat: 108.9 x10_4/uL
  RBC: 723.2 x10_4/ul
  Ret: 4%
  KIDNEY_L: 1.2 g
  KIDNEY_R: 1.2 g
  KIDNEY_TOTAL: 2.4 g
  LIVER: 13.3 g
  ALP: 747.6 IU/L
  ALT: 28.2 IU/L
  AST: 63.2 IU/L
  BUN: 20 mg/dL
  CRE: 0.5 mg/dL
  Ca: 11 mg/dL
  Cl: 106.4 meq/L
  DBIL: 0.01 mg/dL
  GLC: 178.4 mg/dL
  IP: 6.8 mg/dL
  K: 4.7 meq/L
  LDH: 89.6 IU/L
  Na: 137.8 meq/L
  PL: 144.8 mg/dL
  RALB: 4 g/dL
  TBIL: 0.3 mg/dL
  TC: 62.2 mg/dL
  TG: 144.2 mg/dL
  TP: 6.3 g/dL
  gamma-GTP: 1.8 IU/L
[8]
  TERMINAL_BW: 375.7 g
  APTT: 17.3 s
  Bas: 0%
  Eos: 0%
  Fbg: 223.4 mg/dL
  Hb: 15.2 g/dL
  Ht: 45.4%
  Lym: 84.4%
  MCH: 19.4 pg
  MCHC: 33.5%
  Mono: 2.4%
  Neu: 13.2%
  Plat: 99.3 x10_4/uL
  RBC: 782.4 x10_4/ul
  Ret: 2.3%
  KIDNEY_L: 1.3 g
  KIDNEY_R: 1.2 g
  KIDNEY_TOTAL: 2.5 g
  LIVER: 14.9 g
  ALP: 579.4 IU/L
  ALT: 62.6 IU/L
  AST: 58.8 IU/L
  BUN: 20.8 mg/dL
  CRE: 0.6 mg/dL
  Ca: 10.9 mg/dL
  Cl: 107.6 meq/L
  DBIL: 0.054 mg/dL
  GLC: 178.6 mg/dL
  IP: 6.7 mg/dL
  K: 4.5 meq/L
  LDH: 76.2 IU/L
  Na: 139 meq/L
  PL: 145 mg/dL
  RALB: 4.1 g/dL
  TBIL: 0.2 mg/dL
  TC: 62.8 mg/dL
  TG: 187.4 mg/dL
  TP: 6.6 g/dL
  gamma-GTP: 1.4 IU/L
